Target: T1, Proteinase-activated receptor 4 (Homo sapiens, UniProt Q96RI0)
T1 sequence (Q96RI0 whole entry): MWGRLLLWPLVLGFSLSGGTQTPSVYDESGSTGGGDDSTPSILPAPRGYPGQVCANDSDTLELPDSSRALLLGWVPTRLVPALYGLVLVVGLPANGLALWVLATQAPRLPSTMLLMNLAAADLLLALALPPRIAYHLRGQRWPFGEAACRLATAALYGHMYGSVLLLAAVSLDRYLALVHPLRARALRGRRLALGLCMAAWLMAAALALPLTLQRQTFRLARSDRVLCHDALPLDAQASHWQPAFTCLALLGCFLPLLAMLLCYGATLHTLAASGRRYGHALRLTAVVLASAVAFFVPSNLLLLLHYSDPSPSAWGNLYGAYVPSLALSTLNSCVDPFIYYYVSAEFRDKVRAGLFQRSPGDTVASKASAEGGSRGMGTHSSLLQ
Assay: FLIPR Assay in PAR4-Expressing HEK293 Cells: FLIPR-based calcium mobilization assay in HEK293 cells was used to measure PAR4 antagonism agonism, and selectivity against PAR1. The activity of the PAR4 antagonists of the present invention were tested in PAR4 expressing cells by monitoring H-Ala-Phe(4-F)-[…]NH2-induced intracellular calcium mobilization. Counter screens for agonist activity and PAR1 antagonist activity were also performed. Briefly, PAR/PAR4-expressing HEK293 cells were grown in DMEM (Life Technology, Grand Island, N.Y.) containing 10% heat-inactivated FBS, 1% Penicillin-Streptomycin, 10 μg/mL blasticidin, and 100 μg/mL Zeocin at 37° C. with 5% CO2. Cells were plated overnight prior to the experiment in a black 384-well Purecoat Amine clear bottom plate (Becton Dickinson Biosciences, San Jose, Calif.) at 10,000 cells/well in 30 μL growth medium and incubated in a humidified chamber at 37° C. with 5% CO2 overnight. Prior to compound addition, the cell medium was replaced with 40 μL of 1× calcium and magnesium-containing Hank's Balanced Saline Solution (HBSS) (with 20 mM HEPES) and 1:1000 diluted fluorescent calcium indicator (Codex Biosolutions, Gaithersburg, Md.). […]

Compound `COc1ccc(NC(=O)O[C@H]2CCNC[C@H]2Oc2cc3sc(-c4cc(C)cc5nc(OC)cnc45)nc3cc2F)cn1` (racemic) has an IC50 of 0.98 µM.

`COc1cnc2c(-c3nc4cc(F)c(O[C@@H]5CC(F)(F)C[C@@H]5OC(=O)Nc5cnc(OCCO)nc5)cc4s3)cc(C)cc2c1` (relative stereo) showed an IC50 of 0.02 µM.
